Source: patent US9868748B2, “Thiazolopyrrolidine inhibitors of ROR- γ” (Vitae Pharmaceuticals, Inc., priority 2013, dated 2018)
Where two headings read alike, the source gives them in different places.

Key:
[1] = biological target: full-length RORγt in Jurkat cells (Homo sapiens (Human), UniProt P51449); test: RORγt 5xRORE Assay in Jurkat Cells (Assay 2); assay type: cell-based; conditions: Nanoluc luciferase reporter, 16-18 hrs
Procedure, shortened: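 Inverse agonist activity was read as NanoGlo luminescence from conditioned medium after 16–18 h compound exposure (37 °C, 0.1% DMSO final). The cells were Jurkat, transiently transfected with RORγt and a secNluc reporter carrying five RORE repeats, seeded 80,000 per well in delipidated-serum RPMI.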

[2] = biological target: recombinant RORγ Ligand Binding Domain (LBD) protein (Homo sapiens (Human), UniProt P51449); test: Radio-Ligand RORγ Binding Assay (Assay 1); conditions: competition with 25-hydroxy [26,27-3H]-cholesterol, SPA, read-out: RORγ Binding Ki Range*
Procedure, shortened: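 Recombinant human RORγ ligand binding domain (6×His-GST fusion, 24 nM stock) competed with tritiated 25-hydroxycholesterol (8.6 nM stock) in HEPES buffer pH 7.4 with detergents and DTT; poly-Lys YSi SPA beads, room temperature, tritium SPA signal. Four-parameter IC50 from semi-log dilutions, normalised to DMSO and 10 μM T0901317, then Ki via KD equation.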

[3] = Table 9, read-out: RORγt5X IC50 Range*
[4] = Table 8, read-out: RORγt5X IC50 Range*

Sequence of full-length RORγt in Jurkat cells (P51449 other isoform, or with tags, fused parts or gaps): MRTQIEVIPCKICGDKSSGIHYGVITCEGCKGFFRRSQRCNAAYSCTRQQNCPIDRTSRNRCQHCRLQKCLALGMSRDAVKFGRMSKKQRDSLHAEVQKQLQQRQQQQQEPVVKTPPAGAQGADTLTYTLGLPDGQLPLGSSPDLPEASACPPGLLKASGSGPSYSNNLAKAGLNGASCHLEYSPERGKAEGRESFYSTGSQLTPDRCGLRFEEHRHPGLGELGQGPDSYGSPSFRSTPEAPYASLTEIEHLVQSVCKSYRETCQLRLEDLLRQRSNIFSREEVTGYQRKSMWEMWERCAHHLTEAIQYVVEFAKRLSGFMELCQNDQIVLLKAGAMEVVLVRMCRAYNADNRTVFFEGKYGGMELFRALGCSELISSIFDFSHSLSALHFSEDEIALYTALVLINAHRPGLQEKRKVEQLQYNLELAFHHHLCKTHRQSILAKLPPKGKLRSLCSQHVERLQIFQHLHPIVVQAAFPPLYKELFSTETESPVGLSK
Sequence of recombinant RORγ Ligand Binding Domain (LBD) protein (P51449 269-508): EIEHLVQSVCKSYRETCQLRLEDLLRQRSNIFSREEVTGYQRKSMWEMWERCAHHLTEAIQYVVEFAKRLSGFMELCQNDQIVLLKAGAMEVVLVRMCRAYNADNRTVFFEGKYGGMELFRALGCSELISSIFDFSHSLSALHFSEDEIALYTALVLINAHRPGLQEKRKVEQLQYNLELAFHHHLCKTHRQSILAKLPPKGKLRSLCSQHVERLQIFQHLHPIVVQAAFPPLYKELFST

SMILES	IC50 [1, 3] [nM]	Ki ([2]; Table 9) [nM]	IC50 [1, 4] [nM]	Ki ([2]; Table 8) [nM]
CC(C)[C@H]1c2nc(NC(=O)Cc3ccc(S(C)(=O)=O)cc3)sc2CN1[C@H](C)c1ccc(C#N)cc1Cl	100 to 1000	< 100		
CCS(=O)(=O)c1ccc(CC(=O)Nc2nc3c(s2)CN([C@H](C)Cc2ccc(Cl)cc2)[C@H]3C(C)C)cc1 (single isomer, unassigned)	> 1000	< 100		
CC(C)[C@H]1c2nc(NC(=O)Cc3ccc(C#N)cc3)sc2CN1Cc1ccc(C#N)cc1	100 to 1000	< 100		
CCOC(=O)c1cnc(N2Cc3sc(NC(=O)Cc4ccc(S(=O)(=O)CC)cc4)nc3[C@]2(C)C(C)C)nc1C(F)(F)F	> 1000	< 100		
CCS(=O)(=O)c1ccc(CC(=O)Nc2nc3c(s2)CN(Cc2ccc(F)cc2)[C@H]3C(C)C)cc1 [I-A14]			> 1000	< 100
CC[C@@H](C)[C@@H]1c2nc(NC(=O)Cc3ccc(S(C)(=O)=O)cc3)sc2CN1Cc1ccc(OC(F)(F)F)cc1	100 to 1000	100 to 1000		
CCS(=O)(=O)c1ccc(CC(=O)Nc2nc3c(s2)CN(Cc2cc(C(F)(F)F)cc(C(F)(F)F)c2)[C@@H]3C(C)C)cc1	> 1000	< 100		
CCS(=O)(=O)c1ccc(CC(=O)Nc2nc3c(s2)CN(C[C@H]2CC[C@H](C(=O)OC)CC2)[C@H]3C(C)C)cc1 [I-A44]			< 100	< 100
CC(C)[C@H]1c2nc(C(=O)NCc3ccc(S(C)(=O)=O)cc3)sc2CN1Cc1ccc(C#N)c(F)c1	100 to 1000	< 100		
CC(C)[C@H]1c2nc(NC(=O)Cc3ccc(S(C)(=O)=O)cc3)sc2CN1Cc1ccc(C(F)(F)F)cc1 [I-B19]			< 100	< 100
CCS(=O)(=O)c1ccc(CC(=O)Nc2nc3c(s2)CN(C[C@H]2CC[C@](C)(C#N)CC2)[C@H]3C(C)C)cc1 (single isomer, unassigned)	> 1000	< 100		
CCS(=O)(=O)c1ccc(CC(=O)Nc2nc3c(s2)CN(C[C@H]2CC[C@H](C(F)(F)F)N(C4CC4)C2)[C@H]3C(C)C)cc1 (single isomer, unassigned)	> 1000	< 100		
CC(C)[C@H]1c2nc(NC(=O)Cc3ccc(S(C)(=O)=O)cc3)sc2CN1Cc1ccc(F)cc1	> 1000	< 100		
CCS(=O)(=O)c1ccc(CC(=O)Nc2nc3c(s2)CN(Cc2ccc(C(N)=O)cc2)[C@H]3C(C)C)cc1	< 100	< 100		
CCS(=O)(=O)c1ccc(CC(=O)Nc2nc3c(s2)CN(c2nc(C)cc(C(F)(F)F)n2)[C@@H]3C(C)C)cc1	> 1000	< 100		
CCS(=O)(=O)c1ccc(CNC(=O)c2nc3c(s2)CN(C[C@H]2CC[C@H](C(F)(F)F)CC2)[C@H]3C(C)C)cc1 (relative stereo)	100 to 1000	< 100		
CCS(=O)(=O)c1ccc(CC(=O)Nc2nc3c(s2)CN(C(C)c2c(F)cc(Cl)cc2F)[C@H]3C(C)C)cc1 (stereo partly drawn) [I-A32]			< 100	< 100
CCS(=O)(=O)c1ccc(CC(=O)Nc2nc3c(s2)CN(C[C@H]2CC[C@@H](C(=O)OC)CC2)[C@H]3C(C)C)cc1 (single isomer, unassigned)	> 1000	< 100		
CCS(=O)(=O)c1ccc(CC(=O)Nc2nc3c(s2)CN(C[C@H]2CC[C@H](C(N)=O)CC2)[C@H]3C(C)C)cc1	100 to 1000	< 100		
CCS(=O)(=O)c1ccc(CC(=O)Nc2nc3c(s2)CN(Cc2ccc(Cl)cc2)[C@H]3C(C)C)c(C#N)c1	< 100	< 100		
CCS(=O)(=O)c1ccc(CC(=O)Nc2nc3c(s2)CN(C[C@H]2CC[C@@H](C(F)(F)F)O2)[C@H]3C(C)C)nc1 (single isomer, unassigned)	> 1000	< 100		
CCS(=O)(=O)c1ccc(CC(=O)Nc2nc3c(s2)CN(Cc2ccc(C(F)(F)F)nc2)C3C(C)C)nc1 (stereo not drawn)	< 100	< 100		
CCS(=O)(=O)c1ccc(CC(=O)Nc2nc3c(s2)CN(c2nccc(C(F)(F)F)n2)C3(C)C)cc1	> 1000	< 100		
CCS(=O)(=O)c1ccc(CC(=O)Nc2nc3c(s2)CN([C@@H](C)c2ccc(C(F)(F)F)cc2)[C@H]3C(C)C)cc1 [I-A35]			< 100	< 100
